According to article PMC9364363 (RSC Advances, 2022):
Values after ≈ are worked out from the molar mass of the structure shown. Like-named read-outs stand apart in the source and are kept apart here.

Tests used:
Mtb H37Ra^lux = assay: microbe, parasite or virus in culture; format: cell-based, Mycobacterium tuberculosis; conditions: for IC50: read-out: Mtb H37Ra^lux IC50; for MIC: read-out: Mtb H37Ra^lux IC90 (MIC)
M. avium subsp. avium = assay: microbe, parasite or virus in culture; format: cell-based, Mycobacterium avium subsp. avium; conditions: Mycobacterium avium, 168 h, read-out: IC50 M. avium subsp. avium
M. abscessus = assay: microbe, parasite or virus in culture; format: cell-based, Mycobacterium abscessus; conditions: Mycobacteroides abscessus, 72 h, read-out: IC50 M. abscessus
in vitro = conditions: human
M. intracellulare = assay: microbe, parasite or virus in culture; format: cell-based, Mycobacterium intracellulare; conditions: Mycobacterium intracellulare, 168 h, read-out: IC50 M. intracellulare
[1] = tested on: MRC-5 lung fibroblast cell line
[2] = Mycobacterium tuberculosis, H37RA, 168 h

Molecule | IC50 (Mtb H37Ra^lux; [2]) | MIC (Mtb H37Ra^lux; [2]) | also measured
CCCCc1cn(CCN2CCN(C(=O)c3c(C)nc4sccn34)CC2)nn1 [IT01, (4-(2-(4-Butyl-1H-1,2,3-triazol-1-yl)-ethyl)-piperazin-1-yl)(6-methylimidazo-[2,1-b]-thiazol-5-yl)-methanone] | 6.12 µM | 52 µM (≈ 20.9 µg/mL) | –
Cc1nc2sc3ccccc3n2c1C(=O)N1CCN(Cc2cn(-c3ccc(Cl)cc3Cl)nn2)CC1 [IT06, (4-((1-(2,4-Dichlorophenyl)-1H-1,2,3-triazol-4-yl)-methyl)-piperazin-1-yl)(2-methylbenzo-[d]-imidazo-[2,1-b]-thiazol-3-yl)-methanone] | 2.03 µM | 15.2 µM (≈ 8.01 µg/mL) | –
Cc1ccc(-n2cc(CN3CCN(C(=O)c4c(C)nc5sc6ccccc6n45)CC3)nn2)cc1C [IT09, (4-((1-(3,4-Dimethylphenyl)-1H-1,2,3-triazol-4-yl)-methyl)-piperazin-1-yl)(2-methylbenzo-[d]-imidazo-[2,1-b]-thiazol-3-yl)-methanone] | 3.46 µM | 13.5 µM (≈ 6.55 µg/mL) | IC50 (M. avium subsp. avium): > 128 µM; IC50 (M. abscessus): > 128 µM; CC50 (in vitro): > 128 µM; IC50 (M. intracellulare): > 128 µM; T.I. CC50/IC50 [1]: 37.0
CCCCCCCCCc1cn(CCN2CCN(C(=O)c3c(C)nc4sc5ccccc5n34)CC2)nn1 [IT14, (2-methylbenzo-[d]-imidazo-[2,1-b]-thiazol-3-yl)(4-(2-(4-nonyl-1H-1,2,3-triazol-1-yl)-ethyl)-piperazin-1-yl)-methanone] | 13.1 µM | 28 µM (≈ 14.6 µg/mL) | –
CCCCc1cn(CCN2CCN(C(=O)c3c(C)nc4sc5ccccc5n34)CC2)nn1 [IT12, (4-(2-(4-Butyl-1H-1,2,3-triazol-1-yl)-ethyl)-piperazin-1-yl)(2-methylbenzo-[d]-imidazo-[2,1-b]-thiazol-3-yl)-methanone] | 43.7 µM | 62.8 µM (≈ 28.3 µg/mL) | –
Cc1nc2sccn2c1C(=O)N1CCN(CCn2cc(-c3ccccc3)nn2)CC1 [IT20, (6-Methylimidazo-[2,1-b]-thiazol-5-yl)(4-(2-(4-phenyl-1H-1,2,3-triazol-1-yl)-ethyl)-piperazin-1-yl)-methanone] | 20.6 µM | 54.9 µM (≈ 23.2 µg/mL) | –
Cc1ccc(-n2cc(CN3CCN(C(=O)c4c(C)nc5sccn45)CC3)nn2)cc1C [IT24, (4-((1-(3,4-Dimethylphenyl)-1H-1,2,3-triazol-4-yl)-methyl)-piperazin-1-yl)(6-methylimidazo-[2,1-b]-thiazol-5-yl)-methanone] | 19.8 µM | 48.8 µM (≈ 21.2 µg/mL) | –
Cc1nc2sccn2c1C(=O)N1CCN(Cc2cn(-c3cccc([N+](=O)[O-])c3)nn2)CC1 [IT23, (6-Methylimidazo-[2,1-b]-thiazol-5-yl)(4-((1-(3-nitrophenyl)-1H-1,2,3-triazol-4-yl)-methyl)-piperazin-1-yl)-methanone] | 43.8 µM | 84.8 µM (≈ 38.4 µg/mL) | –
Cc1nc2sccn2c1C(=O)N1CCN(CCn2cc(C3CC3)nn2)CC1 [IT19, (4-(2-(4-Cyclopropyl-1H-1,2,3-triazol-1-yl)-ethyl)-piperazin-1-yl)(6-methylimidazo-[2,1-b]-thiazol-5-yl)-methanone] | > 128 µM | > 128 µM | –
Cc1nc2sc3ccccc3n2c1C(=O)N1CCN(CCn2cc(-c3ccc(C(C)(C)C)cc3)nn2)CC1 [IT13, (4-(2-(4-(4-(tert-Butyl)-phenyl)-1H-1,2,3-triazol-1-yl)-ethyl)-piperazin-1-yl)(2-methylbenzo-[d]-imidazo-[2,1-b]-thiazol-3-yl)-methanone] | 3.19 µM | 7.24 µM (≈ 3.82 µg/mL) | IC50 (M. avium subsp. avium): 17.1 µM; IC50 (M. abscessus): > 128 µM; CC50 (in vitro): 43.7 µM; IC50 (M. intracellulare): > 128 µM; T.I. CC50/IC50 [1]: 13.7
Cc1nc2sccn2c1C(=O)N1CCN(Cc2cn(-c3ccc([N+](=O)[O-])cc3)nn2)CC1 [IT25, (6-Methylimidazo-[2,1-b]-thiazol-5-yl)(4-((1-(4-nitrophenyl)-1H-1,2,3-triazol-4-yl)-methyl)-piperazin-1-yl)-methanone] | 23.1 µM | 51.4 µM (≈ 23.2 µg/mL) | –
Cc1nc2sc3ccccc3n2c1C(=O)N1CCN(CCn2cc(C3CC3)nn2)CC1 [IT18, (4-(2-(4-Cyclopropyl-1H-1,2,3-triazol-1-yl)-ethyl)-piperazin-1-yl)(2-methylbenzo-[d]-imidazo-[2,1-b]-thiazol-3-yl)-methanone] | 29.1 µM | 63.8 µM (≈ 27.8 µg/mL) | –
COc1cccc(-n2cc(CN3CCN(C(=O)c4c(C)nc5sc6ccccc6n45)CC3)nn2)c1 [IT07, (4-((1-(3-Methoxyphenyl)-1H-1,2,3-triazol-4-yl)-methyl)-piperazin-1-yl)(2-methylbenzo-[d]-imidazo-[2,1-b]-thiazol-3-yl)-methanone] | 7.27 µM | 15.4 µM (≈ 7.49 µg/mL) | –
CC/C(=C(\c1ccccc1)c1ccc(OCCN(C)C)cc1)c1ccccc1 [Tamoxifen, reference compound] | – | – | CC50 (in vitro): 12.4 µM
Cc1nc2sccn2c1C(=O)N1CCN(Cc2cn(-c3ccc(Br)cc3)nn2)CC1 [IT21, (4-((1-(4-Bromophenyl)-1H-1,2,3-triazol-4-yl)-methyl)-piperazin-1-yl)(6-methylimidazo-[2,1-b]-thiazol-5-yl)-methanone] | 20.7 µM | 53 µM (≈ 25.8 µg/mL) | –
Cc1nc2sc3ccccc3n2c1C(=O)N1CCN(CCn2cc(-c3ccccc3)nn2)CC1 [IT15, (2-Methylbenzo-[d]-imidazo-[2,1-b]-thiazol-3-yl)(4-(2-(4-phenyl-1H-1,2,3-triazol-1-yl)-ethyl)-piperazin-1-yl)-methanone] | 12.2 µM | 27.2 µM (≈ 12.8 µg/mL) | –
NNC(=O)c1ccncc1 [INH, isoniazid, reference compound] | 0.04 µM | 0.09 µM (≈ 0.0123 µg/mL) | –
COc1cccc(-n2cc(CN3CCN(C(=O)c4c(C)nc5sccn45)CC3)nn2)c1 [IT27, (4-((1-(3-Methoxyphenyl)-1H-1,2,3-triazol-4-yl)-methyl)-piperazin-1-yl)(6-methylimidazo-[2,1-b]-thiazol-5-yl)-methanone] | 46 µM | 98.1 µM (≈ 42.9 µg/mL) | –
(4-(2-(4-((5-Chloropyridin-2-yl)oxy)-1H-1,2,3-triazol-1-yl)-ethyl)-piperazin-1-yl)(2-methylbenzo-[d]-imidazo-[2,1-b]-thiazol-3-yl)-methanone [IT17] | – | – | Mtb H37Ra^lux IC90 (MIC) (Mtb H37Ra^lux): 115.57 µM; IC50 (Mtb H37Ra^lux): 19.7 µM
Cc1nc2sccn2c1C(=O)N1CCN(Cc2cn(-c3ccccc3Cl)nn2)CC1 [IT26, (4-((1-(2-Chlorophenyl)-1H-1,2,3-triazol-4-yl)-methyl)-piperazin-1-yl)(6-methylimidazo-[2,1-b]-thiazol-5-yl)-methanone] | 30.2 µM | 62.1 µM (≈ 27.5 µg/mL) | –
Cc1nc2sccn2c1C(=O)N1CCN(CCn2cc(COc3ccc(Cl)cn3)nn2)CC1 [IT05, (4-(2-(4-(((5-Chloropyridin-2-yl)-oxy)-methyl)-1H-1,2,3-triazol-1-yl)ethyl)-piperazin-1-yl)(6-methylimidazo-[2,1-b]-thiazol-5-yl)-methanone] | 49.6 µM | > 128 µM | –
Cc1nc2sccn2c1C(=O)N1CCN(Cc2cn(-c3ccc(F)c(Cl)c3)nn2)CC1 [IT22, (4-((1-(3-Chloro-4-fluorophenyl)-1H-1,2,3-triazol-4-yl)-methyl)-piperazin-1-yl)(6-methylimidazo-[2,1-b]-thiazol-5-yl)-methanone] | 5.28 µM | 57.8 µM (≈ 26.6 µg/mL) | –
